Values quoted from earlier work, collected in patent publication US20220054558A1, “COMPOSITIONS COMPRISING BACTERIAL STRAINS” (4D Pharma Research Limited, priority 2018, published 2022).

System: C. difficile
Conditions: reference [19]

Structure (SMILES): CCCCC(=O)O [Valeric acid]
- viability of C. difficile: reduce the viability
